As usually defined, the Cmax is the peak of the concentration-time curve. What is called Tmax is the time from dosing to the highest level.

Each structure is given as a SMILES string. Where two headings read alike, the source gives them in different places. Marks after values point to notes of the source that are not given here.

Results on 11 molecules are retold here after patent US20250129012A1, “ANTI-INFLAMMATORY AND ANALGESIC COMPOUNDS AND USE THEREOF” (JIANGSU ATOM BIOSCIENCE AND PHARMACEUTICAL CO., LTD., priority 2021, published 2025).

The test system of one data set is TNF-α. Put plainly: Inflammatory factor experiment B: TNF-α in knee synovial tissue (ELISA). The following applies: for inhibition in vivo at 0.6 mg/kg: Rattus norvegicus, po, 48 h, read-out: TNF-α percentage decrease %. The data set is classed as in vivo, SD rats. (In general: In an ELISA, binding on a coated surface is turned into a signal by an enzyme label.)
In another data set the test system is IL-1β. Put plainly: Inflammatory factor experiment B: IL-1β in knee synovial tissue (ELISA). Type of data set: in vivo, SD rats. The following applies: for inhibition in vivo at 0.6 mg/kg: Rattus norvegicus, po, 48 h, read-out: IL-1β percentage decrease %.
The subject of a further data set is IL-6. In words: Inflammatory factor experiment B: IL-6 in knee synovial tissue (ELISA). The data set is classed as in vivo, SD rats. The following applies: Rattus norvegicus, po, 48 h, read-out: IL-6 percentage decrease %.
Data set [1] deals with gouty arthritis rats (sodium urate, right ankle and knee joint cavities). Put plainly: Pharmacodynamics experiment B on gouty arthritis rats: gait score. Type of data set: in vivo, SD rats. The following applies: dose 0.6 mg/kg gavage, mean. The method, then: (§1) Compounds 12, 16, 19, 30, 34, 36, 38, 40, 44, 48, 49, 52, 58, 69, 83, 98, 102, 119, 121, and 122 were prepared by grinding with 0.5% CMC-Na prior to administration and formulated into suspensions of appropriate concentration (0.12 mg/mL) for gavage, with an administered dose of 0.5 mL/100 g.
(§2) 240 SD rats, males, were acclimatized for one week and weighed 180-220 g. […] The dose of each compound group was 0.6 mg/kg. The compounds in each group were prepared into the corresponding concentration suspension, and the volume of administration was 10 mL/kg.
(§3) 250 mg of sodium urate were added to 9 mL of saline, and 1 mL of Tween-80 solution was added, the resulting mixture was heated and stirred to formulate 10 mL of sodium urate solution. The rats were grasped and fixed, and 0.2 mL of sodium urate solution was injected into the right ankle and knee joint cavities respectively to establish gouty arthritis rat model.
(§4) Before modeling, positive drug and tested compounds were pre-administered for 7 days, once a day, and modeling was performed on day 8, and drug administration by gavage continued for 3 days after modeling.
Gait was scored according to the modified gait grading criteria introduced by Coderre et al. The gait of each rat was observed before and 2 h, 4 h, 8 h, 10 h, 24 h and 48 h after modeling and graded scoring was performed. The gait grading criteria were as follows: 0 point, normal walking; 1 point, slight lameness, the lower limbs were slightly bent; 2 points: moderate lameness, the lower limbs just touched the ground; 3 points, severe lameness, the lower limbs left the ground, and walked on three feet. The mean score of each group was calculated and compared with that of the model group.
(§5) Each experimental data was expressed as the mean, and intergroup comparisons were examined for significance using the ANOVA-Dunnett T-test, with P<0.05 as the significance indicator.

For data set [2] the test system is unchanged. In words: Pharmacodynamics experiment B on gouty arthritis rats: ankle swelling rate. Type of data set: in vivo, SD rats. The following applies: for change in vivo at 0.6 mg/kg: Rattus norvegicus, po, read-out: Swelling rate (ankle); for Swelling rate (ankle): dose 0.6 mg/kg gavage. The protocol: as §1, §2, §3, §4
Before modeling and 2 h, 4 h, 8 h, 10 h, 24 h and 48 h after modeling, the circumference of the right ankle joint was measured using a soft ruler or the volume change at the ankle was measured (volumetric method), and the swelling degree and swelling rate of ankle joint were calculated:
Swelling degree (mm)=measured circumference (mm)−baseline circumference (mm)
Swelling rate (%)=swelling degree (mm)/baseline circumference (mm)×100%
as §5

Data set [3] can be described thus: In vivo pharmacokinetics in SD rats. The method, then: Compound stock solution preparation: an appropriate amount of solid powder of the compounds were weighed separately, a certain amount of DMSO was added and 20 mg/mL of stock solution was obtained under vortex ultrasound.
Preparation of test compound for gavage: an appropriate amount of compound stock solution was taken by pipette, a certain amount of Solutol HS15 solution was added, the mixture was vortexed for 1 minute, then a certain amount of saline was added, and 1 mg/mL of solution was obtained after mixing well.
Preparation of test compounds for intravenous injection: an appropriate amount of compound stock solution was taken by pipette separately, a certain amount of Solutol HS15 solution was added, the mixture was vortexed for 1 minute, then a certain amount of physiological saline was added and a solution of 0.5 mg/mL was obtained after mixing well.
The animals were fasted overnight before administration by gavage, and food was given 4 hours after administration, during which they were free to drink. Two groups were set for each test compound, intravenous injection group and oral administration group, and the dose and mode of administration were shown in Table 12 below.
The blood samples were centrifuged at 4° C. for 5 min at 2,000 g to separate the plasma. The plasma samples were analyzed by LC/MS/MS to detect the concentration of each test compound in the plasma samples.
The parameters related to the […] were obtained by calculations with WinNonlin® Professional software.

The mark [4] stands for this setting: synovial tissue of knee joints, 48 h after modeling, dose 0.6 mg/kg.
[5] abbreviates: Intravenous injection - 1 mg/kg.

`COc1cc2c(c(OC)c1OC)-c1ccc(-n3nccn3)c(=O)cc1[C@@H](NC(C)=O)CC2` [Compound 100, (S)—N-(1,2,3-trimethoxy-9-oxo-10-(2H-1,2,3-triazol-2-yl)-5,6,7,9-tetrahydrobenzo[a]heptalen-7-yl)acetamide]: the inhibition in vivo at 0.6 mg/kg in the data set with TNF-α was 120%; in the data set with IL-1β it was 65.2%; in the data set on IL-6 it was 169%.

For `CNC(=O)N[C@H]1CCc2cc(OC)c(OC)c(OC)c2-c2cc(C)c(OC)c(=O)cc21` [Compound 44, (S)-1-methyl-(1,2,3,10-tetramethoxy-11-methyl-9-oxo-5,6,7,9-tetrahydrobenzo[a]heptalen-7-yl)urea], the “Gait Score” value is 0 in data set [1] (2 h); 0 in data set [1] (4 h); 0* in data set [1] (8 h); 0* in data set [1] (10 h); 0 in data set [1] (24 h); 0 in data set [1] (48 h). Also, the change in vivo at 0.6 mg/kg in data set [2] (2 h) is -9.72%; in data set [2] (4 h), -8.92%; in data set [2] (8 h), -6.13%; in data set [2] (10 h), -1.47%; in data set [2] (24 h) it was 3.17%; in data set [2] (48 h) it was -6.2%. The inhibition in vivo at 0.6 mg/kg in the data set on TNF-α worked out at 72.6%; with IL-1β, 104%; with IL-6, 19.7%.

On to `COc1cc2c(c(OC)c1OC)-c1ccc(-n3cnnn3)c(=O)cc1[C@@H](NC(C)=O)CC2` [Compound 95, (S)—N-{1,2,3-trimethoxy-9-oxo-10-(1H-tetrazol-1-yl)-5,6,7,9-tetrahydrobenzo[a]heptalen-7-yl}acetamide], for which the inhibition in vivo at 0.6 mg/kg in the data set on TNF-α was found to be 70%; in the data set with IL-1β, 40.4%; in the data set with IL-6 it was 109%.

On to `COC(=O)c1ccc2c(cc1=O)[C@@H](N1CCCCC1=O)CCc1cc(OC)c(OC)c(OC)c1-2` [Compound 108, methyl (S)-1,2,3-trimethoxy-9-oxo-7-(2-oxopiperidin-1-yl)-5,6,7,9-tetrahydrobenzo[a]heptalen-10-carboxylate], for which the inhibition in vivo at 0.6 mg/kg came out at 104% in the data set on TNF-α, 92.7% with IL-1β and 207% in the data set with IL-6.

As for `COc1cc2c(c(OC)c1OC)-c1ccc(-n3ccnn3)c(=O)cc1[C@@H](NC(C)=O)CC2` [Compound 99, (S)—N-(1,2,3-trimethoxy-9-oxo-10-(1H-1,2,3-triazol-1-yl)-5,6,7,9-tetrahydrobenzo[a]heptalen-7-yl)acetamide], the inhibition in vivo at 0.6 mg/kg in the data set with TNF-α stood at 91.7%; with IL-1β it was 66.4%; with IL-6, 79.6%.

Consider `COc1cc2c(c(OC)c1OC)-c1ccc(C(=O)N3CCC[C@H]3C#N)c(=O)cc1[C@@H](NC(C)=O)CC2` [Compound 60, N—{(S)-10-[(S)-2-cyanopyrrolidin-1-carbonyl]-1,2,3-trimethoxy-9-oxo-5,6,7,9-tetrahydrobenzo[a]heptalen-7-yl}acetamide], for which the values for the inhibition in vivo at 0.6 mg/kg with TNF-α, with IL-1β and with IL-6 were 85.8%, 76.1% and 59.5%, respectively.

Turning to `COc1cc2c(c(OC)c1OC)-c1ccc(C(=O)N3CCCC3)c(=O)cc1[C@@H](NC(C)=O)CC2` [Compound 61, (S)—N-{1,2,3-trimethoxy-9-oxo-10-(pyrrolidin-1-carbonyl)-5,6,7,9-tetrahydrobenzo[a]heptalen-7-yl}acetamide], the inhibition in vivo at 0.6 mg/kg is 71.2% with TNF-α, 97.2% in the data set on IL-1β and 52.5% with IL-6.

Regarding `[2H]C([2H])([2H])Oc1c(OC)cc2c(c1OC)-c1ccc(C(=O)NC)c(=O)cc1[C@@H](NC(C)=O)CC2` [Compound 122, (S)-7-acetamido-1,3-dimethoxy-2-trideutero-methoxy-N-methyl-9-oxo-5,6,7,9-tetrahydrobenzo[a]heptalen-10-carboxamide], the “Gait Score” value in data set [1] (0 h) is reported as 0; in data set [1] (2 h), 0; in data set [1] (4 h) it was 0.2; in data set [1] (8 h), 0.1; in data set [1] (10 h) it was 0.2; in data set [1] (24 h), 0.1. Moreover, the “Gait Score” value in data set [1] (48 h) is reported as 0. For the same molecule, the “Swelling rate (ankle)” value is reported as 7.9%** in data set [2] (2 h); 12.1%** in data set [2] (4 h); 15.8%** in data set [2] (8 h); 15.3%** in data set [2] (10 h); 12.5%** in data set [2] (24 h); 4.7%** in data set [2] (48 h). Moreover, the “TNF-α percentage decrease %” value in the data set on TNF-α (setting [4]) stood at 98.89%. Moreover, the “IL-1β percentage decrease %” value in the data set with IL-1β (setting [4]) was 86.87%. Further, the AUCINF in data set [3] (Gavage - 10 mg/kg) stood at 3129 ng·h/mL; in data set [3] (setting [5]), 624 ng·h/mL. The molecule further came in with a Cmax in data set [3] (Gavage - 10 mg/kg) of 1153 ng/mL. Further, the MRTINF in data set [3] (Gavage - 10 mg/kg) came out at 2.47 h; in data set [3] (setting [5]), 1.34 h. The Tmax in data set [3] (Gavage - 10 mg/kg) is reported as 0.250 h. In addition, the t1/2 is reported as 1.79 h in data set [3] (Gavage - 10 mg/kg) and 1.57 h in data set [3] (setting [5]). For the same molecule, the F in data set [3] (Gavage - 10 mg/kg, calculated by AUCINF) was 50.1%. In data set [3] (setting [5]), the CL came to 27.2 mL/min/kg. Moreover, the VSS in data set [3] (setting [5]) amounted to 1.99 L/kg.

For the molecule `CCNS(=O)(=O)N[C@H]1CCc2cc(OC)c(OC)c(OC)c2-c2ccc(C(=O)OC)c(=O)cc21` [Compound 112], the inhibition in vivo at 0.6 mg/kg in the data set on TNF-α stood at 97.8%; with IL-1β it was 92%; in the data set with IL-6, 165%.

With `COc1cc2c(c(OC)c1OC)-c1ccc(-n3ccnc3)c(=O)cc1[C@@H](NC(C)=O)CC2` [Compound 97, (S)—N-{10-(1H-imidazol-1-yl)-1,2,3-trimethoxy-9-oxo-5,6,7,9-tetrahydrobenzo[a]heptalen-7-yl}acetamide], the inhibition in vivo at 0.6 mg/kg worked out at 92% with TNF-α, 20.2% in the data set with IL-1β and 97.8% in the data set with IL-6.

Turning to `CNC(=O)N[C@H]1CCc2cc(OC)c(OC)c(OC)c2-c2ccc(C(=O)NC)c(=O)cc21` [Compound 81, (S)-1,2,3-trimethoxy-N-methyl-7-(3-methylureido)-9-oxo-5,6,7,9-tetrahydrobenzo[a]heptalen-10-carboxamide], the inhibition in vivo at 0.6 mg/kg with TNF-α was determined as 78%; in the data set on IL-1β it was 86.6%; with IL-6 it was 70.6%.
